Test results reported in ChEMBL document CHEMBL4665642, “Anticancer profile of newly synthesized BRAF inhibitors possess 5-(pyrimidin-4-yl)imidazo[2,1-b]thiazole scaffold” (Bioorg Med Chem, 2019).

Key:
Type in all cases: functional
Conditions in all cases: read-out: Activity
[1] = test system: MDA-MB-468; experiment: Cytotoxicity against human MDA-MB-468 cells assessed as cell viability at 10 uM incubated for 48 hrs by sulforhodamine B assay relative to control
[2] = test system: BT-549; experiment: Cytotoxicity against human BT-549 cells assessed as cell viability at 10 uM incubated for 48 hrs by sulforhodamine B assay relative to control
[3] = test system: Hs-578T; experiment: Cytotoxicity against human HS-578T cells assessed as cell viability at 10 uM incubated for 48 hrs by sulforhodamine B assay relative to control
[4] = test system: MDA-MB-231; experiment: Cytotoxicity against human MDA-MB-231 cells assessed as cell viability at 10 uM incubated for 48 hrs by sulforhodamine B assay relative to control
[5] = test system: DU-145; experiment: Cytotoxicity against human DU-145 cells assessed as cell viability at 10 uM incubated for 48 hrs by sulforhodamine B assay relative to control
[6] = test system: PC-3; experiment: Cytotoxicity against human PC-3 cells assessed as cell viability at 10 uM incubated for 48 hrs by sulforhodamine B assay relative to control
[7] = test system: TK-10; experiment: Cytotoxicity against human TK-10 cells assessed as cell viability at 10 uM incubated for 48 hrs by sulforhodamine B assay relative to control
[8] = test system: SN12C; experiment: Cytotoxicity against human SN12C cells assessed as cell viability at 10 uM incubated for 48 hrs by sulforhodamine B assay relative to control
[9] = test system: ACHN; experiment: Cytotoxicity against human ACHN cells assessed as cell viability at 10 uM incubated for 48 hrs by sulforhodamine B assay relative to control
[10] = test system: 786-0; experiment: Cytotoxicity against human 786-0 cells assessed as cell viability at 10 uM incubated for 48 hrs by sulforhodamine B assay relative to control
[11] = test system: NCI/ADR-RES; experiment: Cytotoxicity against human NCI/ADR-RES cells assessed as cell viability at 10 uM incubated for 48 hrs by sulforhodamine B assay relative to control
[12] = test system: OVCAR-8; experiment: Cytotoxicity against human OVCAR-8 cells assessed as cell viability at 10 uM incubated for 48 hrs by sulforhodamine B assay relative to control
[13] = test system: OVCAR-5; experiment: Cytotoxicity against human OVCAR-5 cells assessed as cell viability at 10 uM incubated for 48 hrs by sulforhodamine B assay relative to control
[14] = test system: OVCAR-4; experiment: Cytotoxicity against human OVCAR-4 cells assessed as cell viability at 10 uM incubated for 48 hrs by sulforhodamine B assay relative to control
[15] = test system: OVCAR-3; experiment: Cytotoxicity against human OVCAR-3 cells assessed as cell viability at 10 uM incubated for 48 hrs by sulforhodamine B assay relative to control
[16] = test system: IGROV-1; experiment: Cytotoxicity against human IGROV-1 cells assessed as cell viability at 10 uM incubated for 48 hrs by sulforhodamine B assay relative to control
[17] = test system: UACC-62; experiment: Cytotoxicity against human UACC-62 cells assessed as cell viability at 10 uM incubated for 48 hrs by sulforhodamine B assay relative to control
[18] = test system: SK-MEL-28; experiment: Cytotoxicity against human SK-MEL-28 cells assessed as cell viability at 10 uM incubated for 48 hrs by sulforhodamine B assay relative to control
[19] = test system: MDA-MB-435; experiment: Cytotoxicity against human MDA-MB-435 cells assessed as cell viability at 10 uM incubated for 48 hrs by sulforhodamine B assay relative to control
[20] = test system: M14; experiment: Cytotoxicity against human M14 cells assessed as cell viability at 10 uM incubated for 48 hrs by sulforhodamine B assay relative to control
[21] = test system: CCRF-CEM; experiment: Cytotoxicity against human CCRF-CEM cells assessed as cell viability at 10 uM incubated for 48 hrs by sulforhodamine B assay relative to control
[22] = test system: HL-60(TB); experiment: Cytotoxicity against human HL-60(TB) cells assessed as cell viability at 10 uM incubated for 48 hrs by sulforhodamine B assay relative to control
[23] = test system: K562; experiment: Cytotoxicity against human K562 cells assessed as cell viability at 10 uM incubated for 48 hrs by sulforhodamine B assay relative to control
[24] = test system: MOLT-4; experiment: Cytotoxicity against human MOLT-4 cells assessed as cell viability at 10 uM incubated for 48 hrs by sulforhodamine B assay relative to control
[25] = test system: RPMI-8226; experiment: Cytotoxicity against human RPMI-8226 cells assessed as cell viability at 10 uM incubated for 48 hrs by sulforhodamine B assay relative to control
[26] = test system: SR; experiment: Cytotoxicity against human SR cells assessed as cell viability at 10 uM incubated for 48 hrs by sulforhodamine B assay relative to control
[27] = test system: A549; experiment: Cytotoxicity against human A549 cells assessed as cell viability at 10 uM incubated for 48 hrs by sulforhodamine B assay relative to control
[28] = test system: EKVX; experiment: Cytotoxicity against human EKVX cells assessed as cell viability at 10 uM incubated for 48 hrs by sulforhodamine B assay relative to control
[29] = test system: HOP-62; experiment: Cytotoxicity against human HOP-62 cells assessed as cell viability at 10 uM incubated for 48 hrs by sulforhodamine B assay relative to control
[30] = test system: HOP-92; experiment: Cytotoxicity against human HOP-92 cells assessed as cell viability at 10 uM incubated for 48 hrs by sulforhodamine B assay relative to control
[31] = test system: NCI-H226; experiment: Cytotoxicity against human NCI-H226 cells assessed as cell viability at 10 uM incubated for 48 hrs by sulforhodamine B assay relative to control
[32] = test system: NCI-H23; experiment: Cytotoxicity against human NCI-H23 cells assessed as cell viability at 10 uM incubated for 48 hrs by sulforhodamine B assay relative to control
[33] = test system: NCI-H460; experiment: Cytotoxicity against human NCI-H460 cells assessed as cell viability at 10 uM incubated for 48 hrs by sulforhodamine B assay relative to control
[34] = test system: NCI-H522; experiment: Cytotoxicity against human NCI-H522 cells assessed as cell viability at 10 uM incubated for 48 hrs by sulforhodamine B assay relative to control
[35] = test system: COLO 205; experiment: Cytotoxicity against human COLO 205 cells assessed as cell viability at 10 uM incubated for 48 hrs by sulforhodamine B assay relative to control
[36] = test system: KM12; experiment: Cytotoxicity against human KM12 cells assessed as cell viability at 10 uM incubated for 48 hrs by sulforhodamine B assay relative to control
[37] = test system: SW-620; experiment: Cytotoxicity against human SW-620 cells assessed as cell viability at 10 uM incubated for 48 hrs by sulforhodamine B assay relative to control
[38] = test system: SF-268; experiment: Cytotoxicity against human SF-268 cells assessed as cell viability at 10 uM incubated for 48 hrs by sulforhodamine B assay relative to control
[39] = test system: SNB-19; experiment: Cytotoxicity against human SNB-19 cells assessed as cell viability at 10 uM incubated for 48 hrs by sulforhodamine B assay relative to control
[40] = test system: SNB-75; experiment: Cytotoxicity against human SNB-75 cells assessed as cell viability at 10 uM incubated for 48 hrs by sulforhodamine B assay relative to control
[41] = test system: U-251; experiment: Cytotoxicity against human U-251 cells assessed as cell viability at 10 uM incubated for 48 hrs by sulforhodamine B assay relative to control

O=C(NCCCNc1nccc(-c2c(-c3cccc(F)c3)nc3sccn23)n1)c1ccc(C(F)(F)F)cc1
viability at 10 µM [1]: 76.6% | viability at 10 µM [2]: 83.4% | viability at 10 µM [3]: 75.7% | viability at 10 µM [4]: 89.1% | viability at 10 µM [5]: 81.3% | viability at 10 µM [6]: 70.8% | viability at 10 µM [7]: 74% | viability at 10 µM [8]: 80.1% | viability at 10 µM [9]: 64.5% | viability at 10 µM [10]: 58.9% | viability at 10 µM [11]: 74.7% | viability at 10 µM [12]: 73.9% | viability at 10 µM [13]: 126% | viability at 10 µM [14]: 74.7% | viability at 10 µM [15]: 82.3% | viability at 10 µM [16]: 41.8% | viability at 10 µM [17]: 69.6% | viability at 10 µM [18]: 96.2% | viability at 10 µM [19]: 68.7% | viability at 10 µM [20]: 82.8% | viability at 10 µM [21]: 89.1% | viability at 10 µM [22]: 115% | viability at 10 µM [23]: 66.7% | viability at 10 µM [24]: 44.8% | viability at 10 µM [25]: 96.8% | viability at 10 µM [26]: 86.8% | viability at 10 µM [27]: 69% | viability at 10 µM [28]: 72.2% | viability at 10 µM [29]: 124% | viability at 10 µM [30]: 93.6% | viability at 10 µM [31]: 78.8% | viability at 10 µM [32]: 95.5% | viability at 10 µM [33]: 92.1% | viability at 10 µM [34]: 90.3% | viability at 10 µM [35]: 74.8% | viability at 10 µM [36]: 85.4% | viability at 10 µM [37]: 111% | viability at 10 µM [38]: 67.8% | viability at 10 µM [39]: 87.6% | viability at 10 µM [40]: 82.6% | viability at 10 µM [41]: 83%

O=C(NCCCNc1nccc(-c2c(-c3cccc(F)c3)nc3sccn23)n1)C1CCCCC1
viability at 10 µM [1]: 74.3% | viability at 10 µM [2]: 78.6% | viability at 10 µM [3]: 80.2% | viability at 10 µM [4]: 80.6% | viability at 10 µM [5]: 92.2% | viability at 10 µM [6]: 73.9% | viability at 10 µM [7]: 78.9% | viability at 10 µM [8]: 67.3% | viability at 10 µM [9]: 45.3% | viability at 10 µM [10]: 62.1% | viability at 10 µM [11]: 72.6% | viability at 10 µM [12]: 71.1% | viability at 10 µM [13]: 105% | viability at 10 µM [14]: 85.9% | viability at 10 µM [15]: 82.1% | viability at 10 µM [16]: 37.5% | viability at 10 µM [17]: 36.4% | viability at 10 µM [18]: 84.5% | viability at 10 µM [19]: 50.5% | viability at 10 µM [20]: 57.6% | viability at 10 µM [21]: 73.2% | viability at 10 µM [22]: 111% | viability at 10 µM [23]: 65.4% | viability at 10 µM [24]: 69.5% | viability at 10 µM [25]: 80% | viability at 10 µM [26]: 70.2% | viability at 10 µM [27]: 51.6% | viability at 10 µM [28]: 80.8% | viability at 10 µM [29]: 98.2% | viability at 10 µM [30]: 105% | viability at 10 µM [31]: 63.6% | viability at 10 µM [32]: 75.7% | viability at 10 µM [33]: 60% | viability at 10 µM [34]: 77.6% | viability at 10 µM [35]: 49.8% | viability at 10 µM [36]: 84.5% | viability at 10 µM [37]: 82.1% | viability at 10 µM [38]: 80.2% | viability at 10 µM [39]: 89.8% | viability at 10 µM [40]: 87.7% | viability at 10 µM [41]: 79.6%
